Source: BindingDB's records for PubMed 1857334 (National Institute of Mental Health, 1991)

Biological target: T1, Adenosine receptor A1 (Rattus norvegicus, UniProt P25099)
T1 sequence (P25099 whole entry): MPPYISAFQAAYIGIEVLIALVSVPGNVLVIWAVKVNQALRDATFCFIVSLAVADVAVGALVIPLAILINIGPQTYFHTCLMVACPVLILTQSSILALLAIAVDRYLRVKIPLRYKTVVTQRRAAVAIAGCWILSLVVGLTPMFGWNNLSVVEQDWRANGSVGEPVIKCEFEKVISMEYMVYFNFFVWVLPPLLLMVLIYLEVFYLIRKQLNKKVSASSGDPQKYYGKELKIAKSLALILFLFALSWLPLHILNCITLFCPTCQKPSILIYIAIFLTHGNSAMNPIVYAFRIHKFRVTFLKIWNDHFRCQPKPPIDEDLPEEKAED

Ki: 2 nM
SMILES: CCCn1c(=O)c2[nH]c(-c3ccc(OCC(=O)NCCN)cc3)nc2n(CCC)c1=O [N-(2-Amino-ethyl)-2-[4-(2,6-dioxo-1,3-dipropyl-2,3,6,9-tetrahydro-1H-purin-8-yl)-phenoxy]-acetamide]
